Source: ChEMBL document CHEMBL1201862, “PubChem BioAssay data set” (2004)
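In this assay, cells in 96-well plates receive the compound at five concentrations for 48 hours. Endpoints are linearly interpolated between the surrounding concentrations. Here, GI50 denotes the concentration required for 50% inhibition of growth.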 Calls of active or inactive are those of the source. Cut-off read from the data, not from the text of the source: active = GI50 up to about 1.1 µM and inactive = higher.

Columns and labels:
Experiment in all cases: NCI anticancer screen, dose series, 48 h
HOP-62 = tested on: HOP-62
EKVX = tested on: EKVX
HCC 2998 = tested on: HCC 2998
NCI-H460 = tested on: NCI-H460
SN12C = tested on: SN12C
RPMI-8226 = tested on: RPMI-8226
HT-29 = tested on: HT-29
COLO 205 = tested on: COLO 205
UACC-257 = tested on: UACC-257
KM12 = tested on: KM12
UO-31 = tested on: UO-31
HOP-92 = tested on: HOP-92
LOX IMVI = tested on: LOX IMVI
Malme-3M = tested on: Malme-3M
MDA-MB-231 = tested on: MDA-MB-231
MDA-N = tested on: MDA-N
SW-620 = tested on: SW-620
SF-268 = tested on: SF-268
PC-3 = tested on: PC-3
NCI-H23 = tested on: NCI-H23
SK-MEL-2 = tested on: SK-MEL-2
SK-OV-3 = tested on: SK-OV-3
K562 = tested on: K562
U-251 = tested on: U-251
CCRF-CEM = tested on: CCRF-CEM
UACC-62 = tested on: UACC-62
OVCAR-8 = tested on: OVCAR-8
SR = tested on: SR
SF-295 = tested on: SF-295
Hs-578T = tested on: Hs-578T
OVCAR-4 = tested on: OVCAR-4
CAKI-1 = tested on: CAKI-1
SNB-19 = tested on: SNB-19
MCF7 = tested on: MCF7
M14 = tested on: M14
A498 = tested on: A498
HCT-116 = tested on: HCT-116
NCI-H226 = tested on: NCI-H226
NCI-H522 = tested on: NCI-H522
BT-549 = tested on: BT-549
MDA-MB-435 = tested on: MDA-MB-435
OVCAR-5 = tested on: OVCAR-5
IGROV-1 = tested on: IGROV-1
A549 = tested on: A549
MOLT-4 = tested on: MOLT-4
HL-60 = tested on: HL-60
SK-MEL-5 = tested on: SK-MEL-5
SNB-75 = tested on: SNB-75
786-0 = tested on: 786-0
SK-MEL-28 = tested on: SK-MEL-28
HCT-15 = tested on: HCT-15
NCI/ADR-RES = tested on: NCI/ADR-RES
ACHN = tested on: ACHN
OVCAR-3 = tested on: OVCAR-3
TK-10 = tested on: TK-10
DU-145 = tested on: DU-145
T47D = tested on: T47D

**Q.** With `Cc1ccc(NC(=O)c2cc(S(=O)(=O)Nc3n[nH]c(=O)[nH]3)c(SSc3cc(Cl)c(C(=O)Nc4ccc(C)cc4)cc3S(=O)(=O)Nc3n[nH]c(=O)[nH]3)cc2Cl)cc1` as the compound, how does the GI50 (HOP-62) read?
**A.** Its GI50 is > 100 µM (inactive).

**Q.** What about the GI50 (EKVX) of the same compound?
**A.** The GI50 was > 100 µM (inactive).

**Q.** And the GI50 (HCC 2998)?
**A.** The GI50 was > 100 µM (inactive).

**Q.** And the GI50 (NCI-H460)?
**A.** The GI50 was > 100 µM (inactive).

**Q.** What about the GI50 (SN12C) of the same compound?
**A.** The GI50 was > 100 µM (inactive).

**Q.** What about the GI50 (RPMI-8226) of the same compound?
**A.** Its GI50 is > 100 µM (inactive).

**Q.** And the GI50 (HT-29)?
**A.** The GI50 was > 100 µM (inactive).

**Q.** What about the GI50 (COLO 205) of the same compound?
**A.** Its GI50 is > 100 µM (inactive).

**Q.** What about the GI50 (UACC-257) of the same compound?
**A.** The GI50 was > 100 µM (inactive).

**Q.** And the GI50 (KM12)?
**A.** Its GI50 is > 100 µM (inactive).

**Q.** And the GI50 (UO-31)?
**A.** Its GI50 is > 100 µM (inactive).

**Q.** And the GI50 (HOP-92)?
**A.** Its GI50 is > 100 µM (inactive).

**Q.** What about the GI50 (LOX IMVI) of the same compound?
**A.** Its GI50 is > 100 µM (inactive).

**Q.** What about the GI50 (Malme-3M) of the same compound?
**A.** Its GI50 is > 100 µM (inactive).

**Q.** And the GI50 (MDA-MB-231)?
**A.** The GI50 was > 100 µM (inactive).

**Q.** What about the GI50 (MDA-N) of the same compound?
**A.** The GI50 was > 100 µM (inactive).

**Q.** What about the GI50 (SW-620) of the same compound?
**A.** Its GI50 is > 100 µM (inactive).

**Q.** And the GI50 (SF-268)?
**A.** The GI50 was > 100 µM (inactive).

**Q.** And the GI50 (PC-3)?
**A.** The GI50 was > 100 µM (inactive).

**Q.** What about the GI50 (NCI-H23) of the same compound?
**A.** The GI50 was > 100 µM (inactive).

**Q.** What about the GI50 (SK-MEL-2) of the same compound?
**A.** Its GI50 is > 100 µM (inactive).

**Q.** What about the GI50 (SK-OV-3) of the same compound?
**A.** The GI50 was > 100 µM (inactive).

**Q.** And the GI50 (K562)?
**A.** The GI50 was > 100 µM (inactive).

**Q.** And the GI50 (U-251)?
**A.** The GI50 was > 100 µM (inactive).

**Q.** What about the GI50 (CCRF-CEM) of the same compound?
**A.** Its GI50 is > 100 µM (inactive).

**Q.** What about the GI50 (UACC-62) of the same compound?
**A.** Its GI50 is 0.838 µM (active).

**Q.** What about the GI50 (OVCAR-8) of the same compound?
**A.** The GI50 was > 100 µM (inactive).

**Q.** What about the GI50 (SR) of the same compound?
**A.** Its GI50 is > 100 µM (inactive).

**Q.** What about the GI50 (SF-295) of the same compound?
**A.** Its GI50 is > 100 µM (inactive).

**Q.** What about the GI50 (Hs-578T) of the same compound?
**A.** Its GI50 is > 100 µM (inactive).

**Q.** What about the GI50 (OVCAR-4) of the same compound?
**A.** The GI50 was > 100 µM (inactive).

**Q.** What about the GI50 (CAKI-1) of the same compound?
**A.** The GI50 was > 100 µM (inactive).

**Q.** And the GI50 (SNB-19)?
**A.** Its GI50 is > 100 µM (inactive).

**Q.** What about the GI50 (MCF7) of the same compound?
**A.** Its GI50 is > 100 µM (inactive).

**Q.** What about the GI50 (M14) of the same compound?
**A.** The GI50 was > 100 µM (inactive).

**Q.** And the GI50 (A498)?
**A.** The GI50 was > 100 µM (inactive).

**Q.** What about the GI50 (HCT-116) of the same compound?
**A.** Its GI50 is > 100 µM (inactive).

**Q.** And the GI50 (NCI-H226)?
**A.** The GI50 was > 100 µM (inactive).

**Q.** And the GI50 (NCI-H522)?
**A.** Its GI50 is > 100 µM (inactive).

**Q.** And the GI50 (BT-549)?
**A.** The GI50 was > 100 µM (inactive).

**Q.** And the GI50 (MDA-MB-435)?
**A.** The GI50 was > 100 µM (inactive).

**Q.** What about the GI50 (OVCAR-5) of the same compound?
**A.** The GI50 was > 100 µM (inactive).

**Q.** What about the GI50 (IGROV-1) of the same compound?
**A.** Its GI50 is > 100 µM (inactive).

**Q.** And the GI50 (A549)?
**A.** The GI50 was > 100 µM (inactive).

**Q.** What about the GI50 (MOLT-4) of the same compound?
**A.** Its GI50 is > 100 µM (inactive).

**Q.** What about the GI50 (HL-60) of the same compound?
**A.** The GI50 was > 100 µM (inactive).

**Q.** What about the GI50 (SK-MEL-5) of the same compound?
**A.** The GI50 was > 100 µM (inactive).

**Q.** What about the GI50 (SNB-75) of the same compound?
**A.** The GI50 was > 100 µM (inactive).

**Q.** What about the GI50 (786-0) of the same compound?
**A.** The GI50 was > 100 µM (inactive).

**Q.** And the GI50 (SK-MEL-28)?
**A.** Its GI50 is > 100 µM (inactive).

**Q.** And the GI50 (HCT-15)?
**A.** The GI50 was over 100 µM.

**Q.** What about the GI50 (NCI/ADR-RES) of the same compound?
**A.** The GI50 was > 100 µM (inactive).

**Q.** What about the GI50 (ACHN) of the same compound?
**A.** The GI50 was > 100 µM (inactive).

**Q.** And the GI50 (OVCAR-3)?
**A.** Its GI50 is > 100 µM (inactive).

**Q.** And the GI50 (TK-10)?
**A.** Its GI50 is > 100 µM (inactive).

**Q.** Which results are given for `CSCCC(NC(c1ccccc1)c1ccccc1)[PH](=O)O` (centres undefined)?
**A.** GI50 (HOP-62): > 100 µM (inactive); GI50 (EKVX): > 100 µM (inactive); GI50 (NCI-H460): > 100 µM (inactive); GI50 (SN12C): > 100 µM (inactive); GI50 (RPMI-8226): > 100 µM (inactive); GI50 (DU-145): > 100 µM (inactive); GI50 (HT-29): > 100 µM (inactive); GI50 (COLO 205): > 100 µM (inactive); GI50 (UACC-257): > 100 µM (inactive); GI50 (KM12): > 100 µM (inactive); GI50 (UO-31): > 100 µM (inactive); GI50 (HOP-92): > 100 µM (inactive); GI50 (LOX IMVI): > 100 µM (inactive); GI50 (Malme-3M): > 100 µM (inactive); GI50 (MDA-N): 10 µM (inactive); GI50 (SW-620): > 100 µM (inactive); GI50 (SF-268): > 100 µM (inactive); GI50 (PC-3): > 100 µM (inactive); GI50 (NCI-H23): > 100 µM (inactive); GI50 (SK-MEL-2): > 100 µM (inactive); GI50 (SK-OV-3): > 100 µM (inactive); GI50 (K562): > 100 µM (inactive); GI50 (U-251): > 100 µM (inactive); GI50 (CCRF-CEM): > 100 µM (inactive); GI50 (UACC-62): > 100 µM (inactive); GI50 (OVCAR-8): > 100 µM (inactive); GI50 (SR): > 100 µM (inactive); GI50 (SF-295): > 100 µM (inactive); GI50 (Hs-578T): > 100 µM (inactive); GI50 (OVCAR-4): > 100 µM (inactive); GI50 (CAKI-1): > 100 µM (inactive); GI50 (SNB-19): > 100 µM (inactive); GI50 (MCF7): > 100 µM (inactive); GI50 (T47D): > 100 µM (inactive); GI50 (M14): > 100 µM (inactive); GI50 (HCT-116): > 100 µM (inactive); GI50 (NCI-H226): > 100 µM (inactive); GI50 (NCI-H522): > 100 µM (inactive); GI50 (BT-549): > 100 µM (inactive); GI50 (MDA-MB-435): > 100 µM (inactive); GI50 (OVCAR-5): > 100 µM (inactive); GI50 (IGROV-1): > 100 µM (inactive); GI50 (A549): > 100 µM (inactive); GI50 (MOLT-4): > 100 µM (inactive); GI50 (HL-60): > 100 µM (inactive); GI50 (SK-MEL-5): > 100 µM (inactive); GI50 (SNB-75): > 100 µM (inactive); GI50 (786-0): > 100 µM (inactive); GI50 (SK-MEL-28): > 100 µM (inactive); GI50 (HCT-15): > 100 µM; GI50 (NCI/ADR-RES): > 100 µM (inactive); GI50 (ACHN): > 100 µM (inactive); GI50 (OVCAR-3): > 100 µM (inactive); GI50 (TK-10): > 100 µM (inactive)
